The numbers were not newly measured in US20070231358A1, “INTRAVAGINAL TREATMENT OF VAGINAL INFECTIONS WITH METRONIDAZOLE COMPOSITIONS” (Tolmar, Inc., priority 2004, published 2007), which cites them from elsewhere.

Each structure is given as a SMILES string. Where two headings read alike, the source gives them in different places.

The test system of data set [1] is bacterial vaginosis. Conditions: for Cured patients out of 19: four weeks after initiation; for Cure rate (%): four weeks after initiation of therapy.
For data set [2] the following is noted: after a single oral dose of 2 grams.
For data set [3], the system named is bacterial vaginosis. Conditions: oral route; 400 to 500 mg twice daily for three to seven days or 2 grams single dose.
Setting [4] is: oral 400 mg morning and evening for seven days.
Setting [5] is: vaginal insert 500 mg every evening for seven days.

For `Cc1ncc([N+](=O)[O-])n1CCO` [metronidazole, 1-(2-hydroxyethyl)-2-methyl-5-nitroimidazole], the Side effects result in the data set with bacterial vaginosis [1] (intravaginal use as the 500 mg insert) is reported as “No side effects were reported”. Besides, in the data set with bacterial vaginosis [1] (setting [4]), the “Cured patients out of 19” value is 14 and the “Cure rate (%)” value was 74%. In addition, in the data set on bacterial vaginosis [1] (setting [5]), the “Cured patients out of 19” value is listed as 15 and the “Cure rate (%)” value is given as 79%. Moreover, the “Lactate-producing microorganisms (Lactobacilli and aerobic Streptococci) after treatment” value in the data set on bacterial vaginosis [1] (vaginal versus oral treatment) was “found more frequently after vaginal than after oral treatment”. Further, in data set [2], the “Concentration of metronidazole in the vaginal fluid” value was “low concentration”. The Cure rates with bacterial vaginosis [3] was 80-90%.
